Molecular target: T1, Nitric oxide synthase oxygenase (Bacillus subtilis (strain 168), UniProt O34453)
T1 sequence (O34453 whole entry): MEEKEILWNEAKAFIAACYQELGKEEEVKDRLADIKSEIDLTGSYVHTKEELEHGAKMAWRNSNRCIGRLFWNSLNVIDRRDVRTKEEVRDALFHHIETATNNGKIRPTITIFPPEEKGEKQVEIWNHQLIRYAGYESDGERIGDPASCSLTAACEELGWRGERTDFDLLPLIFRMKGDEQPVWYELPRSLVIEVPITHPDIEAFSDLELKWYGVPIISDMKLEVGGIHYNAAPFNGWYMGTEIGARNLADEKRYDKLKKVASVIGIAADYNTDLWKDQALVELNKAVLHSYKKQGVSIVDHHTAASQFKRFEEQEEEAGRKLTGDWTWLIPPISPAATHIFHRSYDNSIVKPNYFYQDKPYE
Test: Imidazole Spin Shift Assay

| Structure (SMILES) | Kd [µM] |
| --- | --- |
| Cc1cc(N)nc(CCc2cccc([C@H](N)Cc3cc(C)cc(N)n3)c2)c1 | 25.6 |
| Cc1cc(N)nc(CCc2cc(C#N)cc(CCc3cc(C)cc(N)n3)c2)c1 | 4.47 |
| Cc1cc(N)nc(CCc2ccc(CCCN)c(CCc3cc(C)cc(N)n3)c2)c1 | 8.61 |
| CNCCN(C)c1cccc(CCc2cc(C)cc(N)n2)c1 [4-methyl-6-[2-(3-{methyl[2-(methylamino)ethyl]amino}phenyl)ethyl]pyridin-2-amine (13)] | 50.5 |
| CNCCN(C)c1cncc(CCc2cc(C)cc(N)n2)c1 [4-methyl-6-[2-(5-{methyl[2-(methylamino)ethyl]amino}pyridin-3-yl)ethyl]pyridin-2-amine (14)] | 57.6 |
| Cc1cc(N)nc(CCc2cncc(CCc3cc(C)nc(N)c3)c2)c1 [6-(2-{5-[2-(2-amino-6-methylpyridin-4-yl)ethyl]pyridin-3-yl}ethyl)-4-methylpyridin-2-amine] | 5.03 |
| CNCCN(c1cc(F)cc(CCc2cc(C)cc(N)n2)c1)C1CC1 [6-[2-(3-{cyclopropyl[2-(methylamino)ethyl]amino}-5-fluorophenyl)ethyl]-4-methylpyridin-2-amine (18)] | 62.1 |
| NC(=Nc1cccc(OCCOc2cccc(N=C(N)c3cccs3)c2)c1)c1cccs1 [N-(3-{2-[3-(thiophene-2-imidamido)phenoxy]ethoxy}phenyl)thiophene-2-carboximidamide (26)] | 127 |
| N=C(Nc1cccc(CCc2cccc(NC(=N)c3cccs3)c2)c1)c1cccs1 [N-(3-{2-[3-(thiophene-2-imidamido)phenyl]ethyl}phenyl)thiophene-2-carboximidamide (19)] | 99 |
| N=C(Nc1cccc(CNC[C@@H]2CCCN2)c1)c1cccs1 [N-[3-({[(2S)-pyrrolidin-2-ylmethyl]amino}methyl)phenyl]thiophene-2-carboximidamide (20)] | 17.8 |
| N=C(Nc1cccc(COC[C@H]2C[C@H](OCc3cccc(NC(=N)c4cccs4)c3)CN2)c1)c1cccs1 [N-[3-({[(3S,5R)-5-({[3-(thiophene-2-imidamido)phenyl]methoxy}methyl)pyrrolidin-3-yl]oxy}methyl)phenyl]-2H-1λ⁴-thiophene-2-carboximidamide (28)] | 7.73 |
| N=C(Nc1cccc(COC[C@@H]2C[C@H](OCc3cccc(NC(=N)c4cccs4)c3)CN2)c1)c1cccs1 [N-[3-({[(3S,5S)-5-({[3-(thiophene-2-imidamido)phenyl]methoxy}methyl)pyrrolidin-3-yl]oxy}methyl)phenyl]-2H-1λ⁴-thiophene-2-carboximidamide (25)] | 11 |
